This note sets out measurements from patent US6521446B2, “Biosensor” (Duke University, priority 1997, dated 2003).

Experiment [1] can be described thus: Sugar binding Kd of mutant proteins: D-Fucose. The settings on record: Table 2, binding-site mutants. Here is the method: (§1) Measurement of Glucose and Galactose Binding. Sugar binding was determined by measuring changes in fluorescence of the conjugated fluorophores on a SLM-Aminco-Bowman series-2 fluorimeter at 25±1° C. […] For titrations, the excitation and emission slit widths were set to 4 and 16 nm, respectively (IANBD:λex=469 nm, λcm=540 nm; acrylodan: λex=392 nm, λem=520 nm). Under these conditions the instrument noise was <1% of the fluorescence signal observed in saturating solutions of glucose. Experimentally observed binding curves were fit to a binding isotherm:
(§2) where ΔF is the change in fluorescence, ΔFmax the fluorescence change at saturating concentrations of ligand, Kd the binding constant, and S the concentration of ligand.
(§3) (Primary binding surface in E. coli GBP: Asn14, Asn91, His152, Asp154, Arg158, Asn211, Asp236, Asn256; secondary binding surface in E coli GBP: Tyr10, Phe16, Met17, Asn66, Ser112, Ser115, Trp183, Asn210, Met214, Gln261, Tyr295). In order to change the binding constant for glucose, residues in both surfaces have been systematically mutated, either singly or in pairs. The Asp154Ala, Trp183Ala (D154A+W183A) double mutant has a binding constant of 7.2 mM. The dynamic range is thus matched for operating in physiologically relevant glucose concentration ranges.

The nature of experiment [2]: Galactose binding, titration followed by fluorescence change of the conjugated fluorophore. Here is the method:
(§4) Measurement of Glucose and Galactose Binding. Sugar binding was determined by measuring changes in fluorescence of the conjugated fluorophores on a SLM-Aminco-Bowman series-2 fluorimeter at 25±1° C. Glucose or galactose (Sigma) was titrated into a 50 nM conjugated protein solution in 0.1 M NaCl, 50 mM phosphate (pH 7.0), which was continuously mixed with a magnetic stirrer. For titrations, the excitation and emission slit widths were set to 4 and 16 nm, respectively (IANBD:λex=469 nm, λcm=540 nm; acrylodan: λex=392 nm, λem=520 nm). Under these conditions the instrument noise was <1% of the fluorescence signal observed in saturating solutions of glucose. Experimentally observed binding curves were fit to a binding isotherm:
as §2

A short description of experiment [3]: Glucose binding, titration followed by fluorescence change of the conjugated fluorophore. Here is the method: as §4, §2
The nature of experiment [4]: Fluorescence of glucose-saturated GBP conjugate relative to apoprotein. It is filed as binding. Here is the method: as §4, with “isotherm: […]” for “isotherm:”
The nature of experiment [5]: Sugar binding Kd of mutant proteins: L-Arabinose. The settings on record: Table 2, binding-site mutants. Here is the method:
as §1, §2, §3

A short description of experiment [6]: Sugar binding Kd of mutant proteins: D-Mannose. To be noted: Table 2, binding-site mutants. Here is the method:
as §1, §2, §3

A short description of experiment [7]: Sugar binding Kd of mutant proteins: Lactose. The settings on record: Table 2, binding-site mutants. Here is the method: as §1, §2, §3
Experiment [8] can be described thus: Sugar binding Kd of mutant proteins: D-Fructose. The settings on record: Table 2, binding-site mutants. Here is the method:
as §1, §2, §3

Experiment [9] in a line: Sugar binding Kd of mutant proteins: Maltose. To be noted: Table 2, binding-site mutants. The procedure:
as §1, §2, §3

The nature of experiment [10]: Sugar binding Kd of mutant proteins: D-Xylose. The settings on record: Table 2, binding-site mutants. Here is the method:
as §1, §2, §3

[11] abbreviates: Table 2, binding-site mutants, read-out: Kd, D-Galactose.
Setting [12] is: Table 2, binding-site mutants, read-out: Kd, D-Glucose.
The mark [13] stands for this setting: mutants in the allosterically signaling construct 255C, read-out: binding constant for glucose.
[14] abbreviates: IANBD conjugate, relative to wild-type.
Setting [15] is: IANBD conjugate, read-out: Kd(Gal).
[16] abbreviates: IANBD conjugate, read-out: Kd(Glc).
Where [17] appears, read: acrylodan conjugate, read-out: Kd(Gal).
Setting [18] is: acrylodan conjugate, read-out: Kd(Glc).

Consider F16Y: E. coli GBP binding-site mutant, for which the Kd in [1] was 6000 µM; in experiment [2] (setting [11]), 1160 µM; in experiment [3] (setting [12]) it was 500 µM.

In the case of “acrylodan conjugate at position 255: acrylodan conjugate of the L255C GBP mutant, best allosteric signal transducer in the hinge region”, in experiment [4] (acrylodan conjugate), the “decrease in fluorescence upon ligand binding” value was 2 fold.

In the case of “Y10A D154A: E. coli GBP binding-site double mutant”, the Kd in [2] (setting [11]) turned out to be 4400 µM; in [3] (setting [12]), 1050 µM.

Consider “W183A: GBP single mutant constructed in the allosterically signaling construct 255C”, for which the Kd in experiment [3] (setting [13]) came out at 20 µM.

Turning to “Wild-type: wild type E. coli Glucose/Galactose Binding Protein (GBP) [reference compound]”, the Kd in experiment [5] turned out to be 90 µM; in experiment [1], 340 µM; in experiment [2] (setting [11]), 2.4 µM; in experiment [6], 105 µM; in experiment [3] (wild type GBP, read-out: Kd (glucose)), 0.8 µM; in experiment [7], 1300 µM. For the same substance, the Kd amounted to 4700 µM in [8], 400 µM in experiment [9] and 1400 µM in experiment [10].

On to D154A: E. coli GBP binding-site mutant, for which the Kd amounted to 2200 µM in [5]; 140 µM in experiment [1]; 41 µM in experiment [2] (setting [11]); 1550 µM in experiment [6]; 11.5 µM in experiment [3] (setting [12]); 24000 µM in [8].

For the substance “D14A: E. coli GBP binding-site mutant at position 14”, the Kd in experiment [5] was determined as 7250 µM; in experiment [2] (setting [11]) it was 390 µM; in experiment [6], 26000 µM; in [3] (setting [12]), 290 µM.

On to S112A: E. coli GBP binding-site mutant, for which the Kd came out at 870 µM in experiment [5]; 24.5 µM in experiment [2] (setting [11]); 670 µM in experiment [6]; 7.2 µM in experiment [3] (setting [12]); 15000 µM in experiment [8]; 4200 µM in [10].

Take “H152C: E. coli GBP single cysteine mutant in the binding pocket, nonallosteric reporter site, conjugated to IANBD or acrylodan”: the “increase in the binding constant for galactose” value in experiment [2] (setting [14]) was roughly 500 fold. In addition, the Kd in experiment [2] (setting [15]) was determined as 160 µM; in [3] (setting [16]), 20 µM. Also, the “increase in the binding constant for glucose” value in experiment [3] (setting [14]) is reported as roughly 100 fold. In addition, the increase in fluorescence in experiment [4] (IANBD conjugate) turned out to be 4 fold. The “R: ratio of fluorescence of fully saturated GBP (10 mM glucose) to apoprotein” value (“R: ratio” below) was determined as 4.0 in experiment [4] (IANBD conjugate) and 1.0 in experiment [4] (acrylodan conjugate).

For the substance “V296C: E. coli GBP single cysteine mutant in the hinge region, fluorophore conjugated”, the Kd is 0.3 µM in [2] (setting [15]) and 0.1 µM in [3] (setting [16]). Further, the “R: ratio” value amounted to 0.7 in [4] (IANBD conjugate) and 1.0 in [4] (acrylodan conjugate).

Take “W183AY10A: GBP double mutant constructed in the allosterically signaling construct 255C”: the Kd in experiment [3] (setting [13]) was determined as 650 µM.

In the case of “Y10A: E. coli GBP binding-site mutant, constructed in the 255C construct”, the Kd came to 2700 µM in [5]; 180 µM in experiment [2] (setting [11]); 7100 µM in experiment [6]; 54 µM in experiment [3] (setting [12]); 50 µM in [3] (setting [13]); 22000 µM in experiment [8].

Take “D257C: E. coli GBP single cysteine mutant in the hinge region, fluorophore conjugated”: the Kd in [2] (setting [15]) was found to be 1.5 µM; in [2] (setting [17]), 0.5 µM; in experiment [3] (setting [16]) it was 0.8 µM; in experiment [3] (setting [18]) it was 0.5 µM. The “R: ratio” value in experiment [4] (IANBD conjugate) came to 1.6; in experiment [4] (acrylodan conjugate) it was 0.8.

Regarding N91A: E. coli GBP binding-site mutant, the Kd was determined as 1230 µM in [1], 1080 µM in [2] (setting [11]), 16000 µM in [6] and 150 µM in experiment [3] (setting [12]).

Consider “D154A W183A: E. coli GBP double mutant in a 255C background”, for which the Kd in experiment [3] (255C background, read-out: binding constant) was 7200 µM; in experiment [3] (setting [12]), 7200 µM; in experiment [3] (glucose, read-out: binding constant) it was 7200 µM.

Regarding “S112A S115A: E. coli GBP binding-site double mutant”, the Kd in experiment [5] amounted to 1100 µM; in experiment [2] (setting [11]), 33 µM; in [6], 1400 µM; in experiment [3] (setting [12]), 9 µM; in experiment [9] it was 3300 µM.

On to “N15C: E. coli GBP single cysteine mutant in the binding pocket, nonallosteric reporter site, conjugated to IANBD or acrylodan”, for which the Kd is 0.1 µM in experiment [2] (setting [15]), 0.15 µM in [2] (setting [17]), 0.13 µM in experiment [3] (setting [16]) and 0.17 µM in experiment [3] (setting [18]). The “effect on the sugar binding constants” value in experiment [3] (acrylodan and IANBD conjugates at the 15 position) is given as “do not greatly perturb the sugar binding constants”. Moreover, the “R: ratio” value is reported as 0.8 in experiment [4] (IANBD conjugate) and 0.7 in experiment [4] (acrylodan conjugate).

As to “L255C: E. coli GBP single cysteine mutant in the hinge region of the allosteric flap; allosterically signaling construct 255C”, the Kd in experiment [2] (setting [15]) was 0.49 µM; in experiment [2] (setting [17]) it was 0.62 µM; in experiment [3] (setting [16]), 0.32 µM; in experiment [3] (setting [18]), 0.43 µM; in experiment [3] (setting [13]), 0.2 µM. For the same substance, the “R: ratio” value in experiment [4] (IANBD conjugate) was 0.8; in experiment [4] (acrylodan conjugate) it was 0.5.

As to “P294C: E. coli GBP single cysteine mutant in the hinge region, fluorophore conjugated”, the Kd in [2] (setting [17]) and in experiment [3] (setting [18]) was 1 µM throughout. In addition, the “R: ratio” value in [4] (IANBD conjugate) is 1.0; in experiment [4] (acrylodan conjugate), 0.9.
